Data taken from patent publication US9408831B2, “Methods for treating respiratory viral infection” (Celgene Corporation, priority 2010, dated 2016).
Entries after “also recorded” stand apart in the source; their conditions may differ.

Tests used:
Format in all cases: in vivo, mice
[1] = test system: influenza X31 strain (H3N2)
[2] = test system: influenza X31 strain (H3N2); assay: Total viable cell counts in the airway (BAL) and lung tissue, trypan blue exclusion; conditions: 100 μg/mouse i.p. daily
[3] = test system: influenza X31 strain (H3N2); assay: Macrophages and neutrophils in airspaces and lung by flow cytometry
[4] = test system: influenza X31 strain (H3N2); assay: T cell recruitment (CD4, CD8 surface markers) by flow cytometry
[5] = test system: influenza X31 strain (H3N2); conditions: day 7
[6] = test system: influenza X31 strain (H3N2); conditions: lung homogenates, FIG. 9
[7] = day 7, between the animal groups
[8] = early (day 3), 100 μg/mouse i.p. daily, FIG. 5

COc1ccc(C(CC(N)=O)N2Cc3ccccc3C2=O)cc1OC (stereo not shown) [Compound 1]
weight loss (percent original weight) ([1]; 100 μg/mouse i.p. daily days 0-6, vs vehicle control and untreated, FIG. 1): significantly reduced weight loss
visible health appearance ([1]; controls hunched and cachexic on day 5): appeared visibly in better health
cellular infiltrate into the airway (BAL), total viable cells ([2]; […], FIG. 2): significantly reduced the cellular infiltrate
cell counts in the airway (BAL fluid) relative to infected mice not treated ([2]; day 3): less than half
reduction of cellular infiltrate in the lung parenchyma ([2]; day 3 or day 7, FIG. 2): not observed
reduction of cellular infiltrate into the airway (BAL) ([2]; day 7, FIG. 2): not observed
proportion of macrophages among cells recovered from the airspaces ([3]; […], 100 μg/mouse i.p. daily, FIG. 3): higher proportion
neutrophils (CD11c+ and Ly6g+) in the airspaces, reduction in total cells ([3]; day 3, 100 μg/mouse i.p. daily, FIG. 4): primarily associated with neutrophils
number of macrophages, all sites [3, 7]: no significant differences
number of neutrophils, all sites [3, 7]: no significant differences
CD8+ T cells ([4]; any time point analyzed (day 3, day 7)): No difference
early CD4+ T cell recruitment to the airways (BAL) ([4]; day 3, 100 μg/mouse i.p. daily, FIG. 5): reduced
T cell recruitment / later T cell populations (CD4) ([4]; day 7, airway and lung, FIG. 6): no differences; also recorded: did not affect later T cell populations
CD4+ T cells in the lung parenchyma [4, 8]: corresponding accumulation
T cell recruitment [4, 8]: reduced T cell recruitment; also recorded: affected early T cell recruitment
CD8+ T cells cytokine expression [5]: remained unchanged
CD4+ T cells producing IFNγ in the lung tissue ([5]; vs untreated mice and vehicle controls, FIG. 7): partial reduction
recovered viral titer ([6]; early stages of viral replication (day 3)): blunted the recovered viral titer
peak viral load ([6]; 100 μg/mouse i.p. daily): reduced peak viral load
